Assay results: PMC7136958, “Targeting the pregnane X receptor using microbial metabolite mimicry” (EMBO Molecular Medicine, 2020)
Values joined by “and” are separate entries in the source; they are usually repeats but may differ in a detail not shown here. Identical values can stand only once.

Columns and labels:
Cyp3a11 = assay: PXR target gene expression in C57BL/6 mice after FKK6 gavage; assay type: in vivo, mouse; settings: both sexes, C57BL/6J, mouse, 500 μM, 5 doses (60 h), individual mice
Description: (§1) (Scheer et al, 2010) were administered 10% DMSO (n = 3) or FKK6 (n = 3) in 3 or 5 doses, with each dose interval of 12 h. Each gavage dose volume was 100 μl. 2–4 h after the dosing period, mice were sacrificed, and tissues were harvested for further analysis. The mouse studies were performed three independent times over an 18‐month period. All purchased mice were acclimatized in the Einstein vivarium for ~ 2 weeks before experiments started. […]. The room temperature was maintained at 25 ± 2°C with 55 ± 5% humidity. All studies were approved by the Institute of Animal Studies at the Albert Einstein College of Medicine, INC (IACUC # 20160706, 20160701 and preceding protocols), and specific animal protocols were also approved by additional protocols (IACUC# 20170406, 20170504) and Animal Care and Use Review Office (ACURO) of the US Army Medical Research and Materiel Command (PR160167, W81XWH‐17‐1‐0479). […]
(§2) Mouse small, large intestine and liver samples were collected and total RNAs were […]
(§3) isolated. […] Each tissue PCR was […]
(§4) repeated in quadruplicate. The expression was normalized to internal control, GAPDH. ( b,d) The histograms show mean (95 %CI) values, c, mean (SD) and two way ANOVA followed with Tukey's post hoc test. The entire experiment was repeated n = 3 for reproducibility. The data shown is one representative experiment .

C57BL/6 mice = assay: as above; assay type: in vivo, mouse; settings: for Cyp3a11 fold expression / mdr1 fold expression: Fig 4d
Description: as §1, §2, §3, §4

IKK-alpha = target: T1, IKK-alpha (Homo sapiens, UniProt O15111); assay: KINOMEscan select kinase screen; assay type: binding; settings: two experiments
T1 sequence (O15111 1-745): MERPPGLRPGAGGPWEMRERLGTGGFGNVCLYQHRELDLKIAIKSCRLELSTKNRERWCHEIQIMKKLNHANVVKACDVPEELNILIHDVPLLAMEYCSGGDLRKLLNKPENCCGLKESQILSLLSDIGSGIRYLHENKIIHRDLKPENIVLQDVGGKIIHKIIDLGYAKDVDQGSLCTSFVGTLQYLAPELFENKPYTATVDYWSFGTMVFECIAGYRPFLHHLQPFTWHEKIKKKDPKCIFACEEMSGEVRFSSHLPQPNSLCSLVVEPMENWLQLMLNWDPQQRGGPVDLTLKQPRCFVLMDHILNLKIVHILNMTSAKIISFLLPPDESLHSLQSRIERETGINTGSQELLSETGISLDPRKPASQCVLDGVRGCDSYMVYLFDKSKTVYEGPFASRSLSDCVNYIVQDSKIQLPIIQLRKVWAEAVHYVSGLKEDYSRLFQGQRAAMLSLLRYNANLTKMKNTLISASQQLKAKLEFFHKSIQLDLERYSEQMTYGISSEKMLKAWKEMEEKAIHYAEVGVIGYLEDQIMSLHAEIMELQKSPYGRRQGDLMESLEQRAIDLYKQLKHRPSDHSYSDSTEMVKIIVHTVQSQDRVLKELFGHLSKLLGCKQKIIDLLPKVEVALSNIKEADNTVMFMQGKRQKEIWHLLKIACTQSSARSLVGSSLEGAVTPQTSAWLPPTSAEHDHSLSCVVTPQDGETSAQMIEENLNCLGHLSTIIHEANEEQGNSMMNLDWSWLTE
Description: (§5) Kinase Assays. The kinase inhibition assays were conducted by DiscoverX on a platform assay by Ambit BioSciences as described previously 16,17. FKK6 was screened at a single concentration of 10 μM in duplicate. The scanMAXSM assay panel measures 468 kinases
(§6) (https://www.discoverx.com/services/drug-discovery-development-services/kinase-profiling/kinomescan/scanmax). The assays measure a compound’s ability to inhibit binding of a canonical ligand substrate, with 0% activity of control corresponding to full inhibition and 100% activity of control to no inhibition. […]
(§7) quantitative measure of compound selectivity based on the number of kinase hits (enzymes inhibited) divided by the total number of distinct kinases tested. Three different activity cut-offs were analyzed – […]
(§8) ; and S(1) or % activity of control
(§9) < 1. To illustrate effect or lack of effect, an image of the entire family of kinases tested were grouped by families and S(35). The TREEspot Kinase dendrogram image was generated using TREEspot™ Software Tool and reprinted with permission from KINOME scan®, a division of DiscoveRx […]

ERK8 = target: T2, ERK8 (Homo sapiens, UniProt Q8TD08); assay: KINOMEscan select kinase screen; assay type: binding; settings: two experiments
T2 sequence (Q8TD08 1-544): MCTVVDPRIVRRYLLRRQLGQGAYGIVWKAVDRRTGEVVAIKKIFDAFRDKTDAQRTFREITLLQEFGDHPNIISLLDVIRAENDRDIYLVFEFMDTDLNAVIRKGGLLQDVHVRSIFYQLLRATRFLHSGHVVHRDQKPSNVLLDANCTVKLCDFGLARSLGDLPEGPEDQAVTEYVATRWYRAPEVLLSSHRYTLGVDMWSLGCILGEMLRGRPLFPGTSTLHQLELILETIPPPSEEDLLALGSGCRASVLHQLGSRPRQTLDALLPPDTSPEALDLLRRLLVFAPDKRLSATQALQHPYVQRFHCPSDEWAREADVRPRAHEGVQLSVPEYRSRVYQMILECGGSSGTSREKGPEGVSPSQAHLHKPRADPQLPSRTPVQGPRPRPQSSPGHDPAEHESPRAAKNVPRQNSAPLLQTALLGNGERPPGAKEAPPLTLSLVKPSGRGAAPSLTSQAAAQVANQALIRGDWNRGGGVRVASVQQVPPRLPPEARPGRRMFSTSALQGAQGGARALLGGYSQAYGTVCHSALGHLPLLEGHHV
Description: as §5, §6, §7, §8, §9

CDK2 = CDK2 (Homo sapiens, UniProt P24941); assay: KINOMEscan select kinase screen; assay type: binding; settings: two experiments
Description: as §5, §6, §7, §8, §9

CDK5 = CDK5 (Homo sapiens, UniProt Q00535); assay: KINOMEscan select kinase screen; assay type: binding; settings: two experiments
Chain of CDK5 (Q00535 whole entry): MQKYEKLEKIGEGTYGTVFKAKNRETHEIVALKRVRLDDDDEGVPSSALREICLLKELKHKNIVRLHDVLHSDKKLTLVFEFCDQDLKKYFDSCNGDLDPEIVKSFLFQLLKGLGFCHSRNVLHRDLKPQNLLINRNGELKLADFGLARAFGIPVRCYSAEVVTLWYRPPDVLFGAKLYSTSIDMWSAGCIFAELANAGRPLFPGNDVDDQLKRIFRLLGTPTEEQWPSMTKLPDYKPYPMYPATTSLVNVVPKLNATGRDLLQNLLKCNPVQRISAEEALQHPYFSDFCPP
Description: as §5, §6, §7, §8, §9

[1] = 500 μM, 5 doses (60 h), individual mice

C#CCC(O)(c1ccncc1)c1cc2ccccc2n1S(=O)(=O)c1ccccc1 (centres unmarked) [FKK6]
fold induction at 60 h, 500 µM (Cyp3a11; in vivo, read-out: Cyp3a11 fold induction, Large Intestine): 2.55
fold induction at 60 h (Cyp3a11; liver, oral, 500 μM FKK6 gavage every 12 h): 1.72
Cyp3a11 fold induction, Liver (C57BL/6 mice; 500 μM FKK6 gavage every 12 h, 5 doses (60 h), individual mice): 1.38 fold and 0.89 fold
Cyp3a11 fold induction, Large Intestine (C57BL/6 mice; [1]): 2.23 fold and 0.59 fold
Cyp3a11 fold induction, Small Intestine (C57BL/6 mice; [1]): 1.06 fold and 0.22 fold and 0.76 fold
mdr1a fold induction, Large Intestine (C57BL/6 mice; [1]): 1.77 fold and 1.33 fold
mdr1a fold induction, Liver (C57BL/6 mice; [1]): 1.83 fold
mdr1a fold induction, Small Intestine (C57BL/6 mice; [1]): 2.65 fold and 1.8 fold and 0.95 fold
mdr1b fold induction, Large Intestine (C57BL/6 mice; [1]): 0.89 fold and 0.42 fold and 0.77 fold
mdr1b fold induction, Liver (C57BL/6 mice; [1]): 1.65 fold and 1.12 fold and 0.6 fold
mdr1b fold induction, Small Intestine (C57BL/6 mice; [1]): 2.4 fold and 1.54 fold and 0.43 fold
Cyp3a11 fold expression (C57BL/6 mice; Large Intestine): 1.73 fold and 2.49 fold and 1.98 fold
mdr1 fold expression (C57BL/6 mice; Large Intestine): 1.58 fold and 1.34 fold and 1.57 fold
Cyp3a11 fold expression (C57BL/6 mice; Liver): 1.21 fold and 1.31 fold and 1.6 fold
mdr1 fold expression (C57BL/6 mice; Liver): 0.95 fold and 0.87 fold and 0.81 fold
Cyp3a11 fold expression (C57BL/6 mice; Small Intestine): 1.28 fold and 1.07 fold and 0.75 fold
mdr1 fold expression (C57BL/6 mice; Small Intestine): 1.46 fold and 2.26 fold and 1.43 fold
PXR target gene (cyp3a11, mdr1a, mdr1b, mdr1) expression across organs (C57BL/6 mice; ~500 μM, 36 or 60 h): No significant effect

O=C(c1ccncc1)c1cc2ccccc2n1S(=O)(=O)c1ccccc1 [FKK5, (1-(phenylsulfonyl)-1H-indol-2-yl)(pyridin-4-yl)methanone]
%Ctrl (IKK-alpha; 10000 nM, 10 µM): 86 %Ctrl
remaining binding at 10 µM (IKK-alpha; 10000 nM, read-out: %Ctrl): 96%
%Ctrl (IKK-alpha; 25000 nM, 25 µM): 100 %Ctrl
remaining binding at 25 µM (IKK-alpha; 25000 nM, read-out: %Ctrl): 83%
%Ctrl (ERK8; 10000 nM, 10 µM): 97 %Ctrl and 71 %Ctrl
%Ctrl (ERK8; 25000 nM, 25 µM): 65 %Ctrl
remaining binding at 25 µM (ERK8; 25000 nM, read-out: %Ctrl): 75%
%Ctrl (CDK2; 10000 nM, 10 µM): 100 %Ctrl and 74 %Ctrl
%Ctrl (CDK2; 25000 nM, 25 µM): 89 %Ctrl and 63 %Ctrl
%Ctrl (CDK5; 10000 nM, 10 µM): 77 %Ctrl and 100 %Ctrl
%Ctrl (CDK5; 25000 nM, 25 µM): 61 %Ctrl and 100 %Ctrl
